Here are results for 8 molecules from patent US7329660B2, “Phthalazine derivatives for treating inflammatory diseases” (Novartis AG, priority 1999, dated 2008).

Each structure is given as a SMILES string.

Data set [1] concerns the target T1, Flt-1 VEGF-receptor tyrosine kinase (Homo sapiens, UniProt P17948).
T1 construct: 10 ng of the kinase domain of Flt-1
T1 sequence (P17948 827-1158 limits assumed): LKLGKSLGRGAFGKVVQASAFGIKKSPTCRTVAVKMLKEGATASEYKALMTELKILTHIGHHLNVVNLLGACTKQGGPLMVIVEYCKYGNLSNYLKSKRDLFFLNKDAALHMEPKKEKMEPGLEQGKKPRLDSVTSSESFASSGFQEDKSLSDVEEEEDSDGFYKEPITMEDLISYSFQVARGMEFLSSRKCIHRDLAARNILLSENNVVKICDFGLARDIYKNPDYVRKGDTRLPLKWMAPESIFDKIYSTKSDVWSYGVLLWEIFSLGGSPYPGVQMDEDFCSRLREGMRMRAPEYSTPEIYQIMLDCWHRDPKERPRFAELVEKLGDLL
Put plainly: Test for activity against Flt-1 VEGF-receptor tyrosine kinase. It is filed as biochemical. The procedure:
Test for activity against VEGF-receptor tyrosine kinase: the test is conducted using Flt-1 VEGF-receptor tyrosine kinase. […] The reaction is then ended by the addition of 10 μl 0.25 M ethylenediaminetetraacetate (EDTA) pH 7. Using a multichannel dispenser (LAB SYSTEMS, USA), an aliquot of 20 μl is applied to a PVDF (=polyvinyl difluoride) Immobilon P membrane (Millipore, USA), which is incorporated into a Millipore microtitre filter manifold, and connected to a vacuum. Following complete elimination of the liquid, the membrane is washed 4 times successively in a bath containing 0.5% phosphoric acid (H3PO4), incubated for 10 minutes each time while shaking, then mounted in a Hewlett Packard TopCount Manifold and the radioactivity measured after the addition of 10 μl Microscint® (β-scintillation counter liquid; Packard USA).
The test is conducted using Flt-1 VEGF-receptor tyrosine kinase, as described hereinabove.

A further data set concerns male Wistar rats. Put plainly: Rat adjuvant arthritis model, therapeutic dosing. The following applies: for % inhibition of swelling: day 15 to day 22, swelling of the tarsal joints. In kind it is in vivo.
Source text: The well-known rat adjuvant arthritis model (Pearson, Proc. Soc. Exp. Biol. 91, 95-101 (1956)) is used to test the anti-arthritic activity of compounds of the formula I, or salts thereof. Adjuvant Arthritis can be treated uwing two different dosing schedules: either (i) starting time of immunisation with adjuvant (prophylactic dosing); or from day 15 when the arthritic response is already established (therapeutic dosing). Preferably a therapeutic dosing schedule is used. For comparison, e.g. SDZ115-155 (=DUP697) is administered in a separate group.
(§1) In detail, male Wistar rats (5 animals per group, weighing epproximately 200 g, supplied by Iffa Credo, France) are injected i.d. (intra-dermally) at the base of the tail with 0.1 ml of mineral oil containing 0.6 mg of lyophilised heat-killed Mycobacterium tuberculosis. The rats are treated with the test compound (3, 10 or 30 mg/kg p.o. once per day), or vehicle (water) from day 15 to day 22 (therapeutic dosing schedule). At the end of the experiment, the swelling of the tarsal joints is measured by means of a mico-calliper. Percentage inhibition of paw swelling is calculated by reference to vehicle treated arthritic animals (0% inhibition) and vehicle treated normal animals (100% inhibition).
The rat adjuvant arthritis model is used to test the anti-arthritic activity of the compound of Example 1 of WO 98/35958, 1-(4-chloroanilino)-4-(4-pyridylmethyl)phthalazine dihydrochloride. The therapeutic dosing schedule with start of treatment at day 15 after induction of arthritis is used.
as §1, with “Method: Male Wistar” for “In detail, male Wistar”, “(5 rats” for “(5 animals”, “group, weight about” for “group, weighing epproximately”, “200 g;” for “200 g, supplied by”, “of lyophilized” for “of lyophilised”, “p.o. s.i.d. (=once a” for “p.o. once per”

The subject of another data set is male Sprague Dawley rats. Briefly: Rat inflammatory hyperalgesia model (Randall-Selitto paw pressure test). It is filed as in vivo. The note with it: 30 mg/kg p.o., 1 and 2 hours after dosing. The procedure: In this model, the hyperalgesia caused by an intra-planar yeast injection is measured by applying increased pressure to the foot until the animal vocalizes or withdraws its foot from the applied pressure pad. The model is sensitive to COX inhibitors, and diclofenac at 3 mg/kg is used as a positive control.
Method: The baseline pressure required to induce vocalization or withdrawal of the paw of male Sprague Dawley rats (weighing approximately 180 g, supplied by Iffa Credo, France) is measured (2 hours before treatment), followed by an intra-planar injection of 100 μl of a 20% yeast suspension in water in the hind paw. […]
In this model, the hyperalgesia caused by an intra-planar yeast injection is measured by applying increased pressure to the foot until the animal vocalizes or withdraws its foot from the applied pressure pad. […]
Method: The baseline pressure required to induce vocalization or withdrawal of the paw of male Sprague Dawley rats (5 rats per group; weight approximately 180 g, Iffa Credo, France) is measured (2 hours before treatment), followed by an intra-planar injection of 100 μl of a 20% yeast suspension in water in the hind paw. […] Pressure is measured with the standard apparatus from Ugo Basile, Italy, for the paw pressure test (Randall-Selitto).

With `Cc1cccc(Nc2nnc(/C=C/c3cccnc3)c3ccccc23)c1` [1 (E isomer)], the midpoint of inhibition in data set [1], the IC50, lay at 715 nM.
As to `Cc1cccc(Nc2nnc(CCc3cccnc3)c3ccccc23)c1` [Example 2], the melting point amounted to 136 °C. This molecule also yielded an IC50 in data set [1] of 317 nM.
As for `Cc1cc(Cc2nnc(Nc3cc(Br)cc(C(F)(F)F)c3)c3ccccc23)ccn1` [Example 23, 1-(3-Bromo-5-trifluoromethyl-anilino)-4-(2-methylpyridin-4-yl-methyl)-phthalazine], the melting point was 184 to 185 °C.
Take `Cc1cccc(Nc2nnc(/C=C\c3cccnc3)c3ccccc23)c1` [1 (Z isomer)]: in data set [1], the IC50 is 4900 nM.
Consider `CS(=O)(=O)c1ccc(-c2cc(Br)sc2-c2ccc(F)cc2)cc1` [115–155, reference compound], for which the “% inhibition of swelling” value in the data set on male Wistar rats (3 mg/kg p.o. once a day) is reported as 53.8 ± 2.7%.
The molecule `FC(F)(F)c1cc(Nc2nnc(CCCc3cccnc3)c3ccccc23)ccc1Cl` [Example 8, 1-(4-Chloro-3-trifluoromethylanilino)-4-[3-(pyridin-3-yl)propyl]phthalazine] came in with a melting point of 165 to 166 °C.
As to `Cl.Cl.Clc1ccc(Nc2nnc(Cc3ccncc3)c3ccccc23)cc1` [1-(4-chloroanilino)-4-(4-pyridylmethyl)phthalazine dihydrochloride], the “% inhibition of swelling” value in the data set with male Wistar rats (3 mg/kg p.o. once a day) was 0.8 ± 4.0%; in the data set with male Wistar rats (10 mg/kg p.o. once a day), 12.4 ± 5.0%; in the data set on male Wistar rats (30 mg/kg p.o. once a day), 37.0 ± 2.3%. The “inhibition of paw swelling (in words)” value with male Wistar rats (3, 10 or 30 mg/kg p.o., dosing for 7 days from day 15) is “dose-related inhibition of paw swelling”. Also, the “overall discomfort experienced by rats while being held for oral dosing” value in the data set with male Wistar rats (observation in the adjuvant arthritis model) was “reduce the overall discomfort”. For the same molecule, in the data set on male Sprague Dawley rats, the “inhibition of paw hyperalgesia (in words)” value is “inhibits paw hyperalgesia”.
On to `Cc1cc(Nc2nnc(Cc3ccncc3)c3ccccc23)nc(C)n1` [Example 15, 1-[(2,6-Dimethyl-pyrimidin-4-yl)-amino]4-(4-pyridyl-methyl)-phthalazine], for which the melting point is 232 to 233 °C.
